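Step 1: Grow cells in 96-well plates. Step 2: Expose to compound for 48 hours at 5 concentrations. Step 3: Interpolate endpoints linearly; if unreached, use highest concentration. Here, GI50 denotes the concentration required for 50% inhibition of growth.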 The source made the active and inactive calls. No stated cut-off is given here; in the data, active = GI50 up to about 1.1 µM and inactive = higher.
Tests used:
Assay in all cases: inhibition of tumour cell growth, NCI panel, 48 h
CCRF-CEM = test system: CCRF-CEM
HL-60 = test system: HL-60
IGROV-1 = test system: IGROV-1
K562 = test system: K562
KM12 = test system: KM12
MCF7 = test system: MCF7
MDA-MB-231 = test system: MDA-MB-231
NCI-H23 = test system: NCI-H23
RXF 393 = test system: RXF 393
SF-295 = test system: SF-295
SK-MEL-28 = test system: SK-MEL-28
SK-MEL-2 = test system: SK-MEL-2
SK-MEL-5 = test system: SK-MEL-5
SK-OV-3 = test system: SK-OV-3
SN12C = test system: SN12C
SW-620 = test system: SW-620
T47D = test system: T47D
TK-10 = test system: TK-10
U-251 = test system: U-251
UACC-62 = test system: UACC-62

Structure (SMILES)	GI50 (CCRF-CEM)	GI50 (HL-60)	GI50 (IGROV-1)	GI50 (K562)	GI50 (KM12)	GI50 (MCF7)	GI50 (MDA-MB-231)	GI50 (NCI-H23)	GI50 (RXF 393)	GI50 (SF-295)	GI50 (SK-MEL-28)	GI50 (SK-MEL-2)	GI50 (SK-MEL-5)	GI50 (SK-OV-3)	GI50 (SN12C)	GI50 (SW-620)	GI50 (T47D)	GI50 (TK-10)	GI50 (U-251)	GI50 (UACC-62)
O=C(NCCCCCN1CCC2(CCCCC2)CC1)C(C1CCCCC1)C1CCCCC1	2.99 µM (inactive)	1.56 µM (inactive)	4.24 µM (inactive)	1.52 µM (inactive)	6.11 µM (inactive)	2.13 µM (inactive)	5.11 µM (inactive)	3.1 µM (inactive)	4.24 µM (inactive)	1.88 µM (inactive)	1.83 µM (inactive)	2.21 µM (inactive)	1.61 µM (inactive)	5.15 µM (inactive)	3.55 µM (inactive)	2.6 µM (inactive)	2.51 µM (inactive)	4.71 µM (inactive)	4.34 µM (inactive)	2.48 µM (inactive)
Cc1cc[n+]2c(c1)-c1cc(C)cc[n+]1CC2	> 22.7 µM (inactive)	> 100 µM (inactive)	51.2 µM (inactive)	> 100 µM (inactive)	> 100 µM (inactive)	> 100 µM (inactive)	> 71.1 µM (inactive)	84.5 µM (inactive)	> 100 µM (inactive)	> 100 µM (inactive)	> 100 µM (inactive)	> 100 µM (inactive)	> 100 µM (inactive)	> 100 µM (inactive)	89.9 µM (inactive)	> 100 µM (inactive)	> 100 µM (inactive)	> 100 µM (inactive)	> 100 µM (inactive)	> 100 µM (inactive)
O=C1C2C3C=CC(C2C(=O)N1CN1CCOCC1)C1C2C(=O)N(CN4CCOCC4)C(=O)C2C31 (configuration not stated)	18.7 µM (inactive)	> 40.6 µM (inactive)	> 56 µM (inactive)	25.8 µM (inactive)	> 44.7 µM (inactive)	> 100 µM (inactive)	> 100 µM (inactive)	> 47.9 µM (inactive)	> 49 µM (inactive)	> 62.2 µM (inactive)	> 48.6 µM (inactive)	> 44 µM (inactive)	> 43.2 µM (inactive)	> 71.4 µM (inactive)	> 44.7 µM (inactive)	> 46.5 µM (inactive)	> 100 µM (inactive)	> 55.3 µM (inactive)	> 45.3 µM (inactive)	> 47 µM (inactive)
CC(C)C1=Cc2ccc3c(c2C(=O)C1=O)CCCC3	0.65 µM (active)	1.01 µM (active)	5.27 µM (inactive)	2.44 µM (inactive)	17.1 µM (inactive)	1.59 µM (inactive)	16 µM (inactive)	9.42 µM (inactive)	4.32 µM (inactive)	12.8 µM (inactive)	7.5 µM (inactive)	7.35 µM (inactive)	7.1 µM (inactive)	2.92 µM (inactive)	5.27 µM (inactive)	3.3 µM (inactive)	0.227 µM (active)	2.52 µM (inactive)	19.1 µM (inactive)	7.46 µM (inactive)
O=S(=O)(O)c1cc(/N=N/c2cc(S(=O)(=O)O)c3cccnc3c2O)ccc1/C=C/c1ccc(/N=N/c2cc(S(=O)(=O)O)c3cccnc3c2O)cc1S(=O)(=O)O	18.3 µM (inactive)	18.6 µM (inactive)	> 100 µM (inactive)	34 µM (inactive)	> 100 µM (inactive)	> 100 µM (inactive)	> 100 µM (inactive)	> 100 µM (inactive)	> 31.6 µM (inactive)	> 100 µM (inactive)	> 100 µM (inactive)	> 100 µM (inactive)	> 100 µM (inactive)	> 100 µM (inactive)	> 100 µM (inactive)	> 100 µM (inactive)	> 100 µM (inactive)	> 100 µM (inactive)	> 100 µM (inactive)	> 100 µM (inactive)
CN1CCN(C)C12C=c1ccccc1=CC21CC1	24.2 µM (inactive)	3.02 µM (inactive)	68.7 µM (inactive)	22.8 µM (inactive)	29 µM (inactive)	35.4 µM (inactive)	38.4 µM (inactive)	> 100 µM (inactive)	55.5 µM (inactive)	> 77.6 µM (inactive)	20.7 µM (inactive)	24.3 µM (inactive)	23.2 µM (inactive)	> 92.9 µM (inactive)	81.1 µM (inactive)	22.2 µM (inactive)	45.1 µM (inactive)	66.7 µM (inactive)	37.8 µM (inactive)	18.6 µM (inactive)
NCC(=O)Nc1ccc(S(=O)(=O)O)c2cc(S(=O)(=O)O)cc(S(=O)(=O)O)c12	> 100 µM (inactive)	> 100 µM (inactive)	> 100 µM (inactive)	> 100 µM (inactive)	> 100 µM (inactive)	> 100 µM (inactive)	> 100 µM (inactive)	> 100 µM (inactive)	> 100 µM (inactive)	> 100 µM (inactive)	> 100 µM (inactive)	> 100 µM (inactive)	> 100 µM (inactive)	> 100 µM (inactive)	> 100 µM (inactive)	> 100 µM (inactive)	> 100 µM (inactive)	> 100 µM (inactive)	> 100 µM (inactive)	> 100 µM (inactive)
CC(C)Cn1cnc2c(SCc3ccccn3)nc(N)nc21	> 100 µM (inactive)	> 100 µM (inactive)	> 100 µM (inactive)	> 100 µM (inactive)	> 100 µM (inactive)	> 100 µM (inactive)	> 100 µM (inactive)	> 100 µM (inactive)	> 100 µM (inactive)	> 100 µM (inactive)	> 100 µM (inactive)	> 100 µM (inactive)	> 100 µM (inactive)	> 100 µM (inactive)	> 100 µM (inactive)	> 100 µM (inactive)	80.7 µM (inactive)	> 100 µM (inactive)	> 100 µM (inactive)	> 100 µM (inactive)
O=C1Nc2ccccc2/C1=c1\[nH]c(=O)/c(=C\c2ccc(OCc3ccccc3)cn2)[nH]c1=O	39.5 µM (inactive)	49.4 µM (inactive)	47.3 µM (inactive)	20.4 µM (inactive)	> 100 µM (inactive)	> 100 µM (inactive)	35.1 µM (inactive)	30.7 µM (inactive)	8.17 µM (inactive)	16.8 µM (inactive)	> 100 µM (inactive)	38.2 µM (inactive)	64.6 µM (inactive)	32.3 µM (inactive)	> 100 µM (inactive)	> 100 µM (inactive)	> 100 µM (inactive)	22.4 µM (inactive)	17.9 µM (inactive)	67 µM (inactive)
O=C(O)c1cccc(S(=O)(=O)NN2C(=O)CSC2c2ccc(Cl)cc2Cl)c1 (configuration not stated)	9.75 µM (inactive)	12 µM (inactive)	> 100 µM (inactive)	24 µM (inactive)	41.7 µM (inactive)	32.1 µM (inactive)	43.5 µM (inactive)	40.2 µM (inactive)	37.2 µM (inactive)	51.6 µM (inactive)	23.2 µM (inactive)	32.3 µM (inactive)	> 100 µM (inactive)	> 100 µM (inactive)	25.8 µM (inactive)	34.2 µM (inactive)	> 100 µM (inactive)	> 100 µM (inactive)	21.4 µM (inactive)	28.6 µM (inactive)
O=C1/C(=C/c2cccc([N+](=O)[O-])c2)N=C(c2ccccc2)N1c1ccc2c(c1)Sc1cc(N3C(=O)/C(=C/c4cccc([N+](=O)[O-])c4)N=C3c3ccccc3)ccc1N2	16.9 µM (inactive)	21.6 µM (inactive)	20.1 µM (inactive)	27.3 µM (inactive)	> 100 µM (inactive)	19.2 µM (inactive)	29.1 µM (inactive)	30.8 µM (inactive)	21.6 µM (inactive)	14 µM (inactive)	47.9 µM (inactive)	20 µM (inactive)	17.3 µM (inactive)	16.4 µM (inactive)		31.2 µM (inactive)	25.4 µM (inactive)	19.6 µM (inactive)	24.7 µM (inactive)	17 µM (inactive)
CCC(=O)NCC1CCCN2CCCCC12 (configuration not stated)	> 100 µM (inactive)	> 100 µM (inactive)		> 100 µM (inactive)	> 100 µM (inactive)	> 100 µM (inactive)	> 100 µM (inactive)	> 100 µM (inactive)	> 100 µM (inactive)	> 100 µM (inactive)	> 100 µM (inactive)	> 100 µM (inactive)	> 100 µM (inactive)	> 100 µM (inactive)	> 100 µM (inactive)	> 100 µM (inactive)	> 100 µM (inactive)	> 100 µM (inactive)	> 100 µM (inactive)	> 100 µM (inactive)
CC1(C)CC2=C(Sc3ccccc3N2)C(=O)C1C(=O)C(=O)Nc1cc(Cl)ccc1Cl (configuration not stated)	> 100 µM (inactive)	> 100 µM (inactive)	> 100 µM (inactive)	> 100 µM (inactive)	> 100 µM (inactive)	> 100 µM (inactive)	> 100 µM (inactive)	> 100 µM (inactive)	> 100 µM (inactive)	> 100 µM (inactive)	> 100 µM (inactive)	> 100 µM (inactive)	42.1 µM (inactive)	> 100 µM (inactive)	> 100 µM (inactive)	> 100 µM (inactive)	82.8 µM (inactive)		> 100 µM (inactive)	> 100 µM (inactive)

From ChEMBL document CHEMBL1201862, “PubChem BioAssay data set” (2004)
